These results are taken from patent publication EP0212479A1, “Use of lactam amides as efficiency improvers in animals” (BAYER AG, priority 1985, dated 1987).

A short description of the experiment: Rat feeding trial (Ratten-Fütterungsversuch), growth promotion. In kind it is in vivo, Laborratten vom Typ SPF Wistar. Particulars: female rats 90-110 g, active substance in feed ad lib, Dosis 25 ppm, 13-day trial, weight gain relative to Kontrolle = 100. From the text: Weibliche Laborratten 90-110 g schwer vom Typ SPF Wistar tZüchtung Hagemann) werden ad lib mit Standard Rattenfutter, das mit der gewünschten Menge Wirkstoff versetzt ist, gefüttert. Jeder Versuchsansatz wird mit Futter der identischen Charge durchgeführt, so daß Unterschiede in der Zusammensetzung des Futters die Vergleichbarkeit der Ergebnisse nicht beeinträchtigen können.
Die Ratten erhalten Wasser ad lib.
Jeweils 12 Ratten bilden eine Versuchsgruppe und werden mit Futter, das mit der gewünschten Menge Wirkstoff versetzt ist gefüttert. Eine Kontrollgruppe erhält Futter ohne Wirkstoff. Das durchschnittliche Körpergewicht sowie die Streuung in den Körpergewichten der Ratten ist in jeder Versuchsgruppe gleich, so daß eine Vergleichbarkeit der Versuchsgruppen untereinander gewährleistet ist.
Während des 13-tägigen Versuchs werden Gewichtszunahme und Futterverbrauch bestimmt.
Es werden die aus der Tabelle ersichtlichen Ergebnisse erhalten: […]
As to `FC(F)(F)c1ccccc1CNC1=NCCCCC1` [Beispiel 10], the Zuwachs is reported as 107. For the compound `FC(F)(F)c1ccc(CNC2=NCCCCC2)cc1` [Beispiel 3], the Zuwachs amounted to 107. `CC(C)c1ccc(C(F)(F)F)cc1CNC1=NCCCCC1` [Beispiel 9]: the Zuwachs came to 104. In turn, `FC(F)(F)c1cccc(CNC2=NCCCCC2)c1` [14 (Maleinat)] returned a Zuwachs of 117. On to `CC(NC1=NCCCCC1)c1cccc(C(F)(F)F)c1` (stereo not drawn) [Beispiel 1], for which the Zuwachs was 111. The result for `FC(F)(F)c1cccc(CNC2=NCCCCC2)c1` [Beispiel 13, 2-(3-Trifluormethyl-benzylamino)-tetrahydroazepin] reads 112.
